PubChem BioAssay AID1963868 (Molecular Pharmacology Branch, DTP, NCI, 2024)

Test system: KRAS PDC tumor spheroids (HUVEC+MSC), viability
Assay: Anticancer human tumor 254851-301-R-J1-PDC patient-derived colon carcinoma cell line growth inhibition [KRAS2]
Conditions: for IC50: curve of first compound; for viability, T/C: stronger effect = lower value
Procedure, shortened: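 Combination screen of spheroid viability in tumor-cell co-cultures with endothelial (HUVEC) and mesenchymal stem cell stroma. Each agent was tested in half-log dilutions, topping at clinical Cmax or at 10 microM without a known Cmax.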

[1] = second compound 0.1 µM, first compound 0.0316 µM
[2] = second compound 0.1 µM, first compound 0.1 µM
[3] = second compound 0.1 µM, first compound 0.316 µM
[4] = second compound 0.1 µM, first compound 1 µM
[5] = second compound 0.1 µM, first compound 3.16 µM
[6] = second compound 0.316 µM, first compound 0.0316 µM
[7] = second compound 0.316 µM, first compound 0.1 µM
[8] = second compound 0.316 µM, first compound 0.316 µM
[9] = second compound 0.316 µM, first compound 1 µM
[10] = second compound 0.316 µM, first compound 3.16 µM
[11] = second compound 1 µM, first compound 0.0316 µM
[12] = second compound 1 µM, first compound 0.1 µM
[13] = second compound 1 µM, first compound 0.316 µM
[14] = second compound 1 µM, first compound 1 µM
[15] = second compound 1 µM, first compound 3.16 µM
[16] = second compound 3.16 µM, first compound 0.0316 µM
[17] = second compound 3.16 µM, first compound 0.1 µM
[18] = second compound 3.16 µM, first compound 0.316 µM
[19] = second compound 3.16 µM, first compound 1 µM
[20] = second compound 3.16 µM, first compound 3.16 µM
[21] = second compound 10 µM, first compound 0.0316 µM
[22] = second compound 10 µM, first compound 0.1 µM
[23] = second compound 10 µM, first compound 0.316 µM
[24] = second compound 10 µM, first compound 1 µM
[25] = second compound 10 µM, first compound 3.16 µM
[26] = second compound 0.1 µM, first compound 10 µM
[27] = second compound 0.316 µM, first compound 10 µM
[28] = second compound 1 µM, first compound 10 µM
[29] = second compound 3.16 µM, first compound 10 µM
[30] = second compound 10 µM, first compound 10 µM
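Further: spheroids exposed to compounds for seven days before readout.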
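Wherever viability, T/C is given: 100% = DMSO vehicle control luminescence of the spheroids.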

Structure (SMILES)	IC50 (second compound 0.1 µM)	IC50 (second compound 0.316 µM)	IC50 (second compound 1 µM)	IC50 (second compound 3.16 µM)	IC50 (second compound 10 µM)	viability, T/C [1]	viability, T/C [2]	viability, T/C [3]	viability, T/C [4]	viability, T/C [5]	viability, T/C [6]	viability, T/C [7]	viability, T/C [8]	viability, T/C [9]	viability, T/C [10]	viability, T/C [11]	viability, T/C [12]	viability, T/C [13]	viability, T/C [14]	viability, T/C [15]	further results
CC1COCCN1c1cc(-c2ccnn2C)c2ccnc(-c3ccn[nH]3)c2n1 (stereo not given) + COc1cc2nc(C)nc(NC(C)c3cc(N)cc(C(F)(F)F)c3)c2cc1OC1CCOC1	37.4 nM	425 nM	350 nM	114 nM	120 nM	46.4%	32.6%	42.3%	36.8%	14.2%	112%	81%	58.5%	31.8%	25%	104%	77%	50.5%	38%	24%	viability, T/C (second compound 0.1 µM, first compound 0.01 µM): 70.2%; viability, T/C (second compound 0.316 µM, first compound 0.01 µM): 99.8%; viability, T/C (second compound 1 µM, first compound 0.01 µM): 103%; viability, T/C (second compound 3.16 µM, first compound 0.01 µM): 80%; viability, T/C [16]: 64.3%; viability, T/C [17]: 56.3%; viability, T/C [18]: 29.3%; viability, T/C [19]: 17.9%; viability, T/C [20]: 25.7%; viability, T/C (second compound 10 µM, first compound 0.01 µM): 99.8%; viability, T/C [21]: 92%; viability, T/C [22]: 51.3%; viability, T/C [23]: 33.5%; viability, T/C [24]: 21.8%; viability, T/C [25]: 20.9%
CC1OCC2(CCN(c3cnc(Sc4ccnc(N)c4Cl)c(N)n3)CC2)C1N (stereo not given) + COc1cc2nc(C)nc(NC(C)c3cc(N)cc(C(F)(F)F)c3)c2cc1OC1CCOC1	> 10000 nM	> 10000 nM	> 10000 nM	> 10000 nM	> 10000 nM	118%	102%	91.7%	78.3%	82.6%	105%	99.9%	107%	80%	80.7%	98.7%	109%	103%	78.4%	78.6%	viability, T/C [26]: 75.2%; viability, T/C [27]: 76.7%; viability, T/C [28]: 70.3%; viability, T/C [16]: 83.8%; viability, T/C [17]: 87.8%; viability, T/C [18]: 78.6%; viability, T/C [19]: 69.8%; viability, T/C [20]: 80%; viability, T/C [29]: 62.8%; viability, T/C [21]: 76.4%; viability, T/C [22]: 82.5%; viability, T/C [23]: 70.9%; viability, T/C [24]: 72%; viability, T/C [25]: 64.4%; viability, T/C [30]: 64.3%
Cn1nccc1Nc1nccc(-c2cc3c(s2)C(C)(C)N(CCN2CCOCC2)C3=O)n1 + COc1cc2nc(C)nc(NC(C)c3cc(N)cc(C(F)(F)F)c3)c2cc1OC1CCOC1	1970 nM	1810 nM	1530 nM	564 nM	445 nM	101%	97%	82.6%	71.5%	35.9%	98.4%	83.2%	77.2%	74.3%	29.1%	85.5%	86.7%	72.7%	70%	17.6%	viability, T/C [26]: 3.63%; viability, T/C [27]: 3.95%; viability, T/C [28]: 4.11%; viability, T/C [16]: 87.8%; viability, T/C [17]: 80.2%; viability, T/C [18]: 66.5%; viability, T/C [19]: 35%; viability, T/C [20]: 4.08%; viability, T/C [29]: 2.21%; viability, T/C [21]: 72.2%; viability, T/C [22]: 71.2%; viability, T/C [23]: 56.9%; viability, T/C [24]: 31.1%; viability, T/C [25]: 2.79%; viability, T/C [30]: 1.54%
